Assay results taken from BindingDB's records for doi:10.1021/jm020050+ (Glaxosmithkline, 2002).

Key:
[1] = molecular target: T1, Enoyl-[acyl-carrier-protein] reductase [NADH] FabI (Haemophilus influenzae (strain ATCC 51907 / DSM 11121 / KW20 / Rd), UniProt P44432); assay: Enzyme Inhibition Assay; conditions: 30 °C
T1 sequence (P44432 whole entry): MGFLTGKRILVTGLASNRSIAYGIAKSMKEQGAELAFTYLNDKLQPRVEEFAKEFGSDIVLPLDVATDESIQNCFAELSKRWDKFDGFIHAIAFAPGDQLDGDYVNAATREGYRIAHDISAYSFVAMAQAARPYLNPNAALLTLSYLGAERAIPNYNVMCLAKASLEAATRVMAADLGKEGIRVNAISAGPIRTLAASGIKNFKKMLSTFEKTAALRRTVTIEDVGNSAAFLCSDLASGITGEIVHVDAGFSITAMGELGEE
Protocol: (§1) Assays were carried out in half-area, 96-well microtiter plates. Compounds were evaluated in assay mixtures containing components specific for each enzyme. […] The consumption of NAD(P)H was monitored for 20 min at 30 °C by following the change in absorbance at 340 nm. IC50 values were estimated from a fit of the initial velocities to a standard equation.

[2] = molecular target: T2, Enoyl-[acyl-carrier-protein] reductase [NADPH] FabI (Staphylococcus aureus (strain MRSA252), UniProt Q6GI75); assay: Enzyme Inhibition Assay; conditions: pH 6.5; 30 °C
T2 sequence (Q6GI75 whole entry): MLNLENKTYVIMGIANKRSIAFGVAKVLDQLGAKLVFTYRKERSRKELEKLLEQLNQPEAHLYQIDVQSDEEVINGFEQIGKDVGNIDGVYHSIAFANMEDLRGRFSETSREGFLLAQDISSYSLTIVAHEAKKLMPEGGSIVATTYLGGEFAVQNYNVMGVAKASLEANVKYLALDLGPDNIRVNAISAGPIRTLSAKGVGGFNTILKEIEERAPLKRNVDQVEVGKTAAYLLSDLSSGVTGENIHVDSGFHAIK
Protocol: as §1

Structure (SMILES)	IC50 [1] [µM]	IC50 [2] [µM]
COC(=O)C[C@@H]1Nc2ccc(C(=O)N(C)Cc3cc4ccccc4n3C)cc2CN(C)C1=O [(2S)-2-[(Carbomethoxy)methyl]-N,4-dimethyl-N-(1-methyl-1H-indol-2-ylmethyl)-3-oxo-2,3,4,5-tetrahydro-1H-1,4-benzodiazepine-7-carboxamide]	> 100	676
CN(Cc1cc2ccccc2n1C)C(=O)/C=C/c1ccc(N)cc1 [(E)-3-(4-Aminophenyl)-N-methyl-N-(1-methyl-1H-indol-2-ylmethyl)acrylamide]		11.2
CN(Cc1cc2ccccc2n1C)C(=O)c1ccccc1 [N-Methyl-N-(1-methyl-1H-indol-2-ylmethyl)benzamide]	> 100	
